Source: the NIST ThermoML archive (doi:10.1021/je700202h)
± gives the expanded uncertainty stated by the source.

Details: 101.33 kPa, Liquid

mass density (293.15 K) [kg/m3] | viscosity (293.15 K) [mPa·s] | mass density (298.15 K) [kg/m3] | viscosity (298.15 K) [mPa·s] | mass density (303.15 K) [kg/m3] | viscosity (303.15 K) [mPa·s] | mass density (308.15 K) [kg/m3] | viscosity (308.15 K) [mPa·s] | mass density (313.15 K) [kg/m3] | viscosity (313.15 K) [mPa·s] | SMILES
717.9 ± 0.9 | 0.7091 ± 0.012 | 714 ± 0.9 | 0.664 ± 0.012 | 710.8 ± 1 | 0.6217 ± 0.011 | 706.7 ± 1 | 0.5849 ± 0.011 | 702.8 ± 1.1 | 0.55 ± 0.01 | CCCCCCCCC [nonane]
682.8 ± 0.7 | 0.4142 ± 0.0078 | 678.6 ± 0.8 | 0.3928 ± 0.0075 | 674.7 ± 0.8 | 0.3728 ± 0.0072 | 670.7 ± 0.9 | 0.3541 ± 0.007 | 665.6 ± 0.9 | 0.3374 ± 0.0067 | CCCCCCC [heptane]
